Measured values reported in patent US8952025B2, “Multifunctional radical quenchers and their uses” (Arizona Board of Regents, A Body Corporate of the State of …, priority 2010, dated 2015).

Key:
[1] = test system: CoQ10 deficient lymphocyte cell line; experiment: Total intracellular ATP concentration assay (luciferin-luciferase); assay type: cell-based, human; conditions: 48 h, glucose free media with galactose
Source text: The reductions of mitochondrial respiratory chain activity in CoQ10 deficient patients have been reported (Quinzii G M, Lopez L C, Von-Moltke J, Naini A, Krishna S, Schuelke M, Salviati L, Navas P, DiMauro S, and Hirano, M. Respiratory chain dysfunction and oxidative stress correlate with severity of primary CoQ10 deficiency. FASEB J. 2008; 22:1874-1885). The use of CoQ10 analogues to normalize and restore the respiratory chain activities could provide valuable therapeutic approach. We have evaluated the efficiency of oxidative phosphorylation in CoQ10 deficient lymphocyte (GM17932) in presence of tested CoQ10 analogues by measuring total cellular ATP content using (ViaLight® Plus ATP monitoring reagent kit, Lonza).
CoQ10 deficient lymphocyte and normal lymphocyte cell lines were obtained from Coriell Cell Repositories (Camden, N.J.; catalog number GM-17932, GM-158151, respectively). CoQ10 deficient lymphocytes were cultured under glucose-free media supplemented with galactose for two weeks to force energy production predominantly through oxidative phosphorylation rather than glycolysis (Quinzii et al.; Robinson B H, Petrova-Benedict R, Buncic J R, Wallace D C. Nonviability of cells with oxidative defects in galactose medium: A screening test for affected patient fibroblast. Biochem. Med. Metab. Biol. 1992; 48:122-126). Lymphocytes were cultured in RPMI 1640 medium glucose-free (Gibco, Grand Island, N.Y.) supplemented with 25 mM galactose, 2 mM glutamine and 1% penicillin-streptomycin (Cellgro), and 10%, dialyzed fetal bovine serum FBS 0.5 μg/mL) (GEMINI, Bio-Product), Briefly, lymphocytes (2×10^5 cell/mL), were plated (1 mL in 12-well plates) and treated with the test compounds at final concentrations of 5, 10 μM, and 25 μM and incubated at 37° C. for 48 h in a humidified atmosphere containing 5% CO2 in air. The test compounds were prepared by first making 20 mM stock solutions in DMSO. Cells were transferred (100 μL) to 96-well microtiter black-walled cell culture plates (Costar, Corning, N.Y.). The total intracellular ATP level was measured in a luminator (Clarity™ luminescence microplate reader) with the ATP Bioluminescence Assay Kit (ViaLight® Plus ATP monitoring reagent kit, Lonza) following the manufacturer's instructions. The standard curve of ATP was obtained by serial dilution of 1 mM ATP solution. After calibration against the ATP standard, the ATP content of the cell extract was determined and normalized for protein content in the cell.
To enforce the respiratory chain-dependent ATP synthesis, cells were grown for 48 hours in glucose free media supplemented with 25 mM galactose and 10% dialyzed fetal bovine serum (glucose concentration less than 0.5 μg/mL). FIG. 20 illustrates total intracellular ATP levels in CoQ10 deficient and normal lymphocytes measured using the luciferin-luciferase reaction. The levels of ATP shown in Table 1 are relative to the 100% value obtained for the CoQ10 deficient cells in FIG. 20.

CEM cells = experiment: Reactive oxygen species (ROS) assay, DCFH-DA, DEM-treated cells; assay type: cell-based, human; conditions: compound 1 μM, 5 mM DEM
Source text: Cellular ROS production can be monitored using 2′,7′-dichlorodihydrofluorescein diacetate (DCFH-DA) (LeBel et al. (1992) Chem. Res. Toxicol. 5, 227-231) (Molecular Probes, Eugene, Oreg., USA), a membrane permeable and oxidant-sensitive fluorescent dye. DCFH-DA is a non-fluorescent derivative of fluorescein that emits fluorescence after being oxidized by hydrogen peroxide and other ROS. The emitted fluorescence is directly proportional to the concentration of hydrogen peroxide. DCFH-DA is nonionic and nonpolar and is easily taken up by cells. Once inside the cell, DCFH-DA is hydrolyzed by cellular esterases to non-fluorescent DCFH which traps the dye in the cell. In the presence of ROS including hydrogen peroxide, DCFH is oxidized to the highly fluorescent compound dichlorofluorescein (DCF). The intracellular DCF fluorescence is used as an index of cellular ROS production.
Cellular oxidative stress was induced by pharmacological depletion of glutathione (GSH) using the chemical diethylmaleate (DEM). ROS production was assessed by monitoring DCF fluorescence. Leukemic CEM cells (ATCC®, catalogue number CRL-2264) were cultured in RPMI (GIBCO, Grand island, N.Y., USA) with 10% FCS, 2 mM glutamine (HyClone, South Logan, Utah, USA) and 1% penicillin-streptomycin mix antibiotics (Cellgro, Manassan, Va., USA) supplements. Cells were maintained in the log phase at a concentration of between 1×10^5 and 1×10^6 cells/mL. CEM cells (1×10^6 cell/mL) were plated (1 mL) in twelve well plate and treated with the invention compounds (final concentration 1 and 5 μM), and incubated for two hours at 37° C., 5% CO2. The compounds tested were prepared by first making stock solutions (2.5 mM) in dimethylsulfoxide (DMSO). Cells were treated with 5 mM DEM for 30 minutes and collected by centrifugation at 300×g for 3 min and then washed twice with Hanks' Balanced Salt Solution (HSSB) buffer (Sigma, St. Louis, Mo. USA). Cells were resuspended in HSSB buffer+10 mM glucose and incubated at 37° C. in the dark for 20 min with 10 μM DCFH-DA. Cells were collected by centrifugation at 300×g for 3 min and then washed twice with HSSB buffer. The samples were analyzed immediately by flow cytometry (Becton-Dickinson FACS Caliber), (Cell Quest software, BD Biosciences) using 488 nm excitation laser and FL1-H channel 538 nm emission filter. In each analysis, 10,000 events were recorded after cell debris were electronically gated out. Results obtained were verified by repeating experiments N=3 independent experiments. Authentic hydrogen peroxide was used as a positive control.

[2] = test system: NADH oxidase, bovine heart mitochondrial complex (I, III, IV); experiment: NADH oxidase inhibition assay, submitochondrial particles; assay type: biochemical; conditions: for NADH oxidase activity (%): percentage of control; for IC50: beef heart SMP
Description: Beef heart mitochondria were obtained by a large-scale procedure. Inverted submitochondrial particles (SMP) were prepared by the method of Matsuno-Yagi and Hatefi (J. Biol. Chem. 260 (1985), p. 14424), and stored in a buffer containing 0.25 M sucrose and 10 mM Tris-HCl (pH 7.4) at −80° C. Inhibitory effects of compounds on bovine heart mitochondrial complex (I, III, IV) were evaluated. Maximal dimethyl sulfoxide concentration never exceeded 2% and had no influence on the control enzymatic activity. Beef heart SMP were diluted to 0.5 mg/mL. The enzymatic activities were assayed at 30° C. and monitored spectrophotometrically with a Beckman Coulter DU-530 (340 nm, c=6.22 mM^−1 cm^−1). NADH oxidase activity was determined in a reaction medium (2.5 mL) containing 50 mM Hepes, pH 7.5, containing 5 mM MgCl2. The final mitochondrial protein concentration was 30 μg. After the pre-equilibration of SMP with inhibitor for 5 min, the initial rates were calculated from the linear portion of the traces.
The activity is expressed as percentage of control.

cultured FRDA cells = experiment: Cytoprotection of cultured FRDA cells depleted of glutathione; assay type: cell-based; conditions: pretreated then depleted of glutathione, read-out: Viable Cells (%)
Source text: The cells were pretreated with the compounds and then depleted of glutathione. The cell viability is expressed as percentage of total number of cells.

| NADH oxidase activity (%) ([2]; 1 μM) | Structure (SMILES) | Total ATP concentration (% of control) ([1]; 5 μM) | Total ATP concentration (% of control) ([1]; 10 μM) | Total ATP concentration (% of control) ([1]; 25 μM) | further results |
| --- | --- | --- | --- | --- | --- |
| – | CCCCCCCCCCCCCCCCc1nc(N(C)C)nc(OC)c1O [drawing 122] | 122.3 ± 1.9 % of control | 116.4 ± 0.5 % of control | 113.0 ± 1.6 % of control | – |
| – | COc1c(O)c(C)c(CCCCCCCCCCO)c(O)c1OC [idebenol, reference compound] | – | – | – | protection against ROS production (DCF fluorescence) (CEM cells): less effective at this concentration |
| – | COc1nc(N(C)C)nc(CCCCCCCCCCO)c1O [drawing 117] | 101.6 ± 1.4 % of control | 96.8 ± 4.0 % of control | 48.7 ± 0.8 % of control | – |
| 38% | CCCCCCCCCCc1nc(N(C)C)nc(OC)c1O [drawing 141] | – | – | – | NADH oxidase activity (%) ([2]; 5 μM): 38%; NADH oxidase activity (%) ([2]; 10 μM): 10% |
| 50% | Cc1nc(N(C)C)nc(CCCCCCCCCCO)c1O [drawing 134] | – | – | – | NADH oxidase activity (%) ([2]; 2.5 μM): 42%; NADH oxidase activity (%) ([2]; 5 μM): 22%; NADH oxidase activity (%) ([2]; 10 μM): 15%; IC50 [2]: 2.23 µM |
| – | CCCCCCCCCCCCCCCCc1nc(N(C)C)nc(C)c1O [drawing 120] | 111.5 ± 1.8 % of control | 106.9 ± 2.7 % of control | 101.6 ± 3.1 % of control | – |
| 62.5% | COc1nc(N(C)C)nc(CCCCCCCCCCO)c1O [drawing 138] | – | – | – | NADH oxidase activity (%) ([2]; 2.5 μM): 40%; NADH oxidase activity (%) ([2]; 5 μM): 50%; NADH oxidase activity (%) ([2]; 10 μM): 25% |
| – | Cc1nc(N(C)C)nc(CCCCCCCCCCO)c1O [drawing 116] | 102.4 ± 1.2 % of control | 87.9 ± 4.3 % of control | 46.1 ± 1.2 % of control | – |
| – | CCCCCCCCCCc1nc(N(C)C)nc(OC)c1O [drawing 130] | – | – | – | viability at 0.1 µM (cultured FRDA cells): 40.3 ± 1.5%; viability at 0.5 µM (cultured FRDA cells): 83.7 ± 1.5%; viability at 2.5 µM (cultured FRDA cells): 82.7 ± 2.5% |
| – | CCCCCCCCCCCCCCCCc1nc(N(C)C)nc(OC)c1O [drawing 131] | – | – | – | viability at 0.1 µM (cultured FRDA cells): 43.7 ± 3.1%; viability at 0.5 µM (cultured FRDA cells): 66.3 ± 1.5%; viability at 2.5 µM (cultured FRDA cells): 80.5 ± 5% |
| – | CCCCCCCCCCc1nc(N(C)C)nc(OC)c1O [drawing 121] | 109.4 ± 5.0 % of control | 110.5 ± 6.5 % of control | 68.3 ± 2.7 % of control | – |
| 40% | CCCCCCCCCCc1nc(N2C(C)CCC2C)nc(C)c1O (stereo not shown) | – | – | – | IC50 [2]: 10.7 µM |
| – | CCCCCCCCCCc1nc(N(C)C)nc(C)c1O [drawing 119] | 106.6 ± 2.7 % of control | 98.7 ± 1.1 % of control | 75.3 ± 1.8 % of control | – |
| 90% | Cc1cc(N(C)C)nc(CCCCCCCCCCO)c1O [drawing 137] | – | – | – | NADH oxidase activity (%) ([2]; 2.5 μM): 58%; NADH oxidase activity (%) ([2]; 5 μM): 38%; NADH oxidase activity (%) ([2]; 10 μM): 20% |
